The source of these data is US20240390340A1 (INCYTE CORPORATION, priority 2023, published 2024).

For orientation: IC50 means the concentration needed to halve the response being measured.

Some results are limits rather than exact numbers.

One test concerns the target KRAS G12V (Homo sapiens, UniProt P01116, G12V). The test can be described thus: GDP-GTP exchange assay (bodipy-GDP/GppNHp, SOS1), KRAS G12V. The format is biochemical. The note with it: KRAS G12V mutant; value for the most potent isomer quoted for certain compounds; read-out: G12V (KRAS G12V exchange assay IC50).
A further test deals with KRAS G12D (Homo sapiens, UniProt P01116, G12D). Nature of the test: GDP-GTP exchange assay (bodipy-GDP/GppNHp, SOS1), KRAS G12D. The note with it: bodipy-loaded KRAS G12D 2.5 nM, 4 h pre-incubation; value for the most potent isomer quoted for certain compounds; read-out: G12D (KRAS G12D exchange assay IC50). The format is biochemical.
KRAS G12D, sequence (P01116 1-188 isoform P01116-2 G12D): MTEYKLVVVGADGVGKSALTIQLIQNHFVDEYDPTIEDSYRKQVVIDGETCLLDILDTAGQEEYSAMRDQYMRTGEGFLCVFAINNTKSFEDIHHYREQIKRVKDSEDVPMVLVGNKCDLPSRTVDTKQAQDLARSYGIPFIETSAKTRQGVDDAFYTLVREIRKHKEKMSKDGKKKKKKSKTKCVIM

KRAS G12V, sequence (P01116 1-188 isoform P01116-2 G12V): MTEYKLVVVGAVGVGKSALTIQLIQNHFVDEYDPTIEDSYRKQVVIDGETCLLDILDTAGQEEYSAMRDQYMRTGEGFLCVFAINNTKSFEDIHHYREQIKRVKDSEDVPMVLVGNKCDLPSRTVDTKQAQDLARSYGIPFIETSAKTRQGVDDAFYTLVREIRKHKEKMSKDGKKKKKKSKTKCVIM

`CCc1cccc(O[C@H]2C[C@H](c3cc4c(C)nc5c(F)c(-c6cccc(Cl)c6Cl)c(CCC#N)cc5c4n3[C@H]3[C@H]4CN[C@@H]3C4)N(C(=O)C3CC3)C2)c1` [Example 167]: the IC50 on KRAS G12V and at KRAS G12D was no more than 100 nM throughout.
On to `Cc1nc2c(F)c(-c3cccc(Cl)c3Cl)c(CCC#N)cc2c2c1cc([C@H]1C[C@H](Oc3cccc(C(C)C)c3)CN1C(=O)C1CC1)n2[C@H]1[C@H]2CN[C@@H]1C2` [Example 168], for which the IC50 was no more than 100 nM on KRAS G12V and 100 to 1000 nM at KRAS G12D.
Taken in the same sequence, the figures for `Cc1nc2c(F)c(-c3cccc(Cl)c3Cl)c(CCC#N)cc2c2c1cc([C@H]1C[C@H](Oc3cccc(C4CC4)c3)CN1C(=O)C1CC1)n2[C@H]1[C@H]2CN[C@@H]1C2` [Example 169] were no more than 100 nM and no more than 100 nM.
Taken in the same sequence, the figures for `Cc1nc2c(F)c(-c3cccc(Cl)c3Cl)c(CCC#N)cc2c2c1cc([C@H]1C[C@H](Oc3ccn(C)n3)CN1C(=O)C1CC1)n2[C@H]1[C@H]2CN[C@@H]1C2` [Example 170] were no more than 100 nM and no more than 100 nM.
Consider `Cc1nc2c(F)c(-c3cccc(Cl)c3Cl)c(CCC#N)cc2c2c1cc([C@H]1C[C@H](Oc3cccc(OC(F)(F)F)c3)CN1C(=O)C1CC1)n2[C@H]1[C@H]2CN[C@@H]1C2` [Example 171], for which the IC50 on KRAS G12V and at KRAS G12D was no more than 100 nM each time.
For `Cc1nc2c(F)c(-c3cccc(Cl)c3Cl)c(CCC#N)cc2c2c1cc([C@H]1C[C@H](Oc3cccc(C(F)(F)F)c3)CN1C(=O)C1CC1)n2[C@H]1[C@H]2CN[C@@H]1C2` [Example 172], the 50% inhibitory concentration (IC50) at KRAS G12V and at KRAS G12D was no more than 100 nM throughout.
With `CNC(=O)c1cccc(O[C@H]2C[C@H](c3cc4c(C)nc5c(F)c(-c6cccc(Cl)c6Cl)c(CCC#N)cc5c4n3[C@H]3[C@H]4CN[C@@H]3C4)N(C(=O)C3CC3)C2)c1` [Example 173], the half-inhibitory concentration (IC50) at KRAS G12V and at KRAS G12D was no more than 100 nM throughout.
With `Cc1nc2c(F)c(-c3cccc(Cl)c3Cl)c(CCC#N)cc2c2c1cc([C@H]1C[C@H](Oc3cccc(C(=O)N(C)C)c3)CN1C(=O)C1CC1)n2[C@H]1[C@H]2CN[C@@H]1C2` [Example 174], the IC50 at KRAS G12V and on KRAS G12D was no more than 100 nM in each case.
With `Cc1nc2c(F)c(-c3cccc(Cl)c3Cl)c(CCC#N)cc2c2c1cc([C@H]1C[C@H](Oc3ccnn3C)CN1C(=O)C1CC1)n2[C@H]1[C@H]2CN[C@@H]1C2` [Example 175], the IC50 at KRAS G12V and on KRAS G12D was no more than 100 nM throughout.
For the molecule `CC(O)c1nc2c(F)c(-c3cccc(Cl)c3Cl)c(CCC#N)cc2c2c1cc([C@H]1C[C@H](OCc3ccc(F)cc3C#N)CN1C(=O)C1CC1)n2[C@H]1[C@H]2CN[C@@H]1C2` (stereo partly drawn) [Example 178], the IC50 on KRAS G12V and on KRAS G12D was no more than 100 nM each time.
`Cc1nc2c(F)c(-c3cccc(Cl)c3Cl)c(CCC#N)cc2c2c1cc([C@H]1C[C@H](n3cc(C4CC4)nn3)CN1C(=O)C1CC1)n2[C@H]1[C@H]2CN[C@@H]1C2` [Example 179]: the IC50 on KRAS G12V and at KRAS G12D was no more than 100 nM each time.
In the case of `Cc1nc2c(F)c(-c3cccc(Cl)c3Cl)c(CCC#N)cc2c2c1cc([C@H]1C[C@H](n3cc(C4CCCO4)nn3)CN1C(=O)C1CC1)n2[C@H]1C2CNC1C2` (stereo partly drawn) [Example 180], the half-maximal inhibitory concentration (IC50) on KRAS G12V and on KRAS G12D was no more than 100 nM each time.
Turning to `Cc1nc2c(F)c(-c3cccc(Cl)c3Cl)c(CCC#N)cc2c2c1cc([C@H]1C[C@H](n3cc(C4CCOC4)nn3)CN1C(=O)C1CC1)n2[C@H]1C2CNC1C2` (stereo partly drawn) [Example 181], the IC50 on KRAS G12V and on KRAS G12D was no more than 100 nM in each case.
For the molecule `Cc1nc2c(F)c(-c3cccc(Cl)c3Cl)c(CCC#N)cc2c2c1cc([C@H]1C[C@H](n3cc(C4CCCC4)nn3)CN1C(=O)C1CC1)n2[C@H]1[C@H]2CN[C@@H]1C2` [Example 183], the half-inhibitory concentration (IC50) at KRAS G12V and on KRAS G12D was no more than 100 nM each time.
Regarding `Cc1nc2c(F)c(-c3cccc(Cl)c3Cl)c(CCC#N)cc2c2c1cc([C@H]1C[C@H](n3cc([C@H](C)O)nn3)CN1C(=O)C1CC1)n2[C@H]1C2CNC1C2` (stereo partly drawn) [Example 184], the IC50 on KRAS G12V and on KRAS G12D was no more than 100 nM each time.
For `CC(O)c1nc2c(F)c(-c3cccc(Cl)c3Cl)c(CCC#N)cc2c2c1cc([C@H]1C[C@H](OCc3c(F)cccc3F)CN1C(=O)C1(C)CC1)n2[C@H]1[C@H]2CN[C@@H]1C2` (stereo partly drawn) [Example 185], the IC50 at KRAS G12V and at KRAS G12D was no more than 100 nM throughout.
Consider `COc1ccc(F)c(CO[C@H]2C[C@H](c3cc4c(C)nc5c(F)c(-c6cccc(Cl)c6Cl)c(CCC#N)cc5c4n3[C@H]3[C@H]4CN[C@@H]3C4)N(C(=O)C3CC3)C2)c1F` [Example 186], for which the IC50 on KRAS G12V and on KRAS G12D was no more than 100 nM throughout.
Turning to `Cc1nc2c(F)c(-c3cccc(Cl)c3Cl)c(CCC#N)cc2c2c1cc([C@H]1C[C@H](OCc3cccc(C(=O)N(C)C)c3)CN1C(=O)C1CC1)n2[C@H]1[C@H]2CN[C@@H]1C2` [Example 187], the 50% inhibitory concentration (IC50) at KRAS G12V and on KRAS G12D was no more than 100 nM throughout.
Regarding `Cc1nc2c(F)c(-c3cccc(Cl)c3Cl)c(CCC#N)cc2c2c1cc([C@H]1C[C@H](Oc3ncco3)CN1C(=O)C1CC1)n2[C@H]1[C@H]2CN[C@@H]1C2` [Example 188], the IC50 at KRAS G12V and on KRAS G12D was 5000 to 10000 nM throughout.
Turning to `COC(=O)c1cccc(O[C@H]2C[C@H](c3cc4c(C)nc5c(F)c(-c6cccc(Cl)c6Cl)c(CCC#N)cc5c4n3[C@H]3[C@H]4CN[C@@H]3C4)N(C(=O)C3CC3)C2)c1` [Example 189], the IC50 at KRAS G12V and at KRAS G12D was no more than 100 nM each time.
As for `COc1cc(F)cc(O[C@H]2C[C@H](c3cc4c(C)nc5c(F)c(-c6cccc(Cl)c6Cl)c(CCC#N)cc5c4n3[C@H]3[C@H]4CN[C@@H]3C4)N(C(=O)C3CC3)C2)c1` [Example 190], the IC50 on KRAS G12V and on KRAS G12D was no more than 100 nM throughout.
In the case of `Cc1nc2c(F)c(-c3cccc(Cl)c3Cl)c(CCC#N)cc2c2c1cc([C@H]1C[C@H](Oc3cc(Cl)cc(C#N)c3)CN1C(=O)C1CC1)n2[C@H]1[C@H]2CN[C@@H]1C2` [Example 191], the IC50 on KRAS G12V and on KRAS G12D was no more than 100 nM in each case.
With `Cc1nc2c(F)c(-c3cccc(Cl)c3Cl)c(CCC#N)cc2c2c1cc([C@H]1C[C@H](Oc3nn(C)c4ccccc34)CN1C(=O)C1CC1)n2[C@H]1[C@H]2CN[C@@H]1C2` [Example 192], the IC50 on KRAS G12V and at KRAS G12D was no more than 100 nM in each case.
With `Cc1nc2c(F)c(-c3cccc(Cl)c3Cl)c(CCC#N)cc2c2c1cc([C@H]1C[C@H](Oc3ccncc3)CN1C(=O)C1CC1)n2[C@H]1[C@H]2CN[C@@H]1C2` [Example 193], the IC50 at KRAS G12V and on KRAS G12D was no more than 100 nM throughout.
For the molecule `Cc1nc2c(F)c(-c3cccc(Cl)c3Cl)c(CCC#N)cc2c2c1cc([C@H]1C[C@H](Oc3cnn4ccccc34)CN1C(=O)C1CC1)n2[C@H]1[C@H]2CN[C@@H]1C2` [Example 194], the IC50 at KRAS G12V and on KRAS G12D was no more than 100 nM throughout.
In the case of `Cc1nc2c(F)c(-c3cccc(Cl)c3Cl)c(CCC#N)cc2c2c1cc([C@H]1C[C@H](OCc3c(F)cccc3F)CN1C(=O)c1ccccc1)n2[C@H]1[C@H]2CN[C@@H]1C2` [Example 195], the IC50 at KRAS G12V was no more than 100 nM; on KRAS G12D it was 100 to 1000 nM.
Taken in the same sequence, the figures for `Cc1ccccc1C(=O)N1C[C@@H](OCc2c(F)cccc2F)C[C@@H]1c1cc2c(C)nc3c(F)c(-c4cccc(Cl)c4Cl)c(CCC#N)cc3c2n1[C@H]1[C@H]2CN[C@@H]1C2` [Example 196] were no more than 100 nM and 100 to 1000 nM.
Taken in the same sequence, the figures for `Cc1nc2c(F)c(-c3cccc(Cl)c3Cl)c(CCC#N)cc2c2c1cc([C@H]1C[C@H](OCc3c(F)cccc3F)CN1C(=O)N(C)c1ccccc1)n2[C@H]1[C@H]2CN[C@@H]1C2` [Example 197] were no more than 100 nM and 100 to 1000 nM.
On to `Cc1nc2c(F)c(-c3cccc(Cl)c3Cl)c(CCC#N)cc2c2c1cc([C@H]1C[C@H](Oc3ccnc(C#N)c3)CN1C(=O)C1CC1)n2[C@H]1[C@H]2CN[C@@H]1C2` [Example 198], for which the half-maximal inhibitory concentration (IC50) on KRAS G12V and on KRAS G12D was no more than 100 nM in each case.
Take `COc1cccc(O[C@H]2C[C@H](c3cc4c(C)nc5c(F)c(-c6cccc(Cl)c6Cl)c(CCC#N)cc5c4n3[C@H]3C4CNC3C4)N(C(=O)C3CC3)C2)n1` (stereo partly drawn) [Example 199]: the half-inhibitory concentration (IC50) at KRAS G12V and at KRAS G12D was no more than 100 nM throughout.
On to `N#CCCc1cc2c(nc(-c3ccc(N4CCOCC4)nc3)c3cc([C@H]4C[C@H](OCc5c(F)cccc5F)CN4C(=O)C4CC4)n([C@H]4[C@H]5CN[C@@H]4C5)c32)c(F)c1-c1cccc(Cl)c1Cl` [Example 206], for which the IC50 was no more than 100 nM on KRAS G12V and 100 to 1000 nM at KRAS G12D.
Taken in the same sequence, the figures for `N#CCCc1cc2c(nc(-c3ccc(N4CCCC4=O)nc3)c3cc([C@H]4C[C@H](OCc5c(F)cccc5F)CN4C(=O)C4CC4)n([C@H]4[C@H]5CN[C@@H]4C5)c32)c(F)c1-c1cccc(Cl)c1Cl` [Example 207] were no more than 100 nM and 100 to 1000 nM.
Taken in the same sequence, the figures for `Cc1cc(-c2nc3c(F)c(-c4cccc(Cl)c4Cl)c(CCC#N)cc3c3c2cc([C@H]2C[C@H](OCc4c(F)cccc4F)CN2C(=O)C2CC2)n3[C@H]2[C@H]3CN[C@@H]2C3)cc(C)n1` [Example 208] were 5000 to 10000 nM and 5000 to 10000 nM.
Taken in the same sequence, the figures for `Cc1nc2c(F)c(-c3cccc(Cl)c3Cl)c(CCC#N)cc2c2c1cc([C@H]1C[C@H](Oc3cccc(C#N)c3)[C@H](C)N1C(=O)C1CC1)n2[C@H]1[C@H]2CN[C@@H]1C2` [Example 209] were 100 to 1000 nM and no more than 100 nM.
As for `Cc1cc(CO[C@H]2C[C@H](c3cc4c(C)nc5c(F)c(-c6cccc(Cl)c6Cl)c(CCC#N)cc5c4n3[C@H]3[C@H]4CN[C@@H]3C4)N(C(=O)C3CC3)[C@H]2C)ns1` [Example 212], the IC50 at KRAS G12V and at KRAS G12D was no more than 100 nM in each case.
With `Cc1nc2c(F)c(-c3cccc(Cl)c3Cl)c(CCC#N)cc2c2c1cc([C@H]1C[C@H](Oc3cccc(C#N)c3)[C@@H](C)N1C(=O)C1CC1)n2[C@H]1[C@H]2CN[C@@H]1C2` [Example 213], the values for the IC50 at KRAS G12V and at KRAS G12D were no more than 100 nM and 100 to 1000 nM, respectively.
